In patent US12649750B2, “Macrocyclic compounds, compositions, and methods of using thereof” (Sionna Therapeutics Inc., priority 2022, dated 2026):

Columns and labels:
[1] = molecular target: T1, CFTR (Homo sapiens, UniProt P13569, DEL508-508); experiment: TECC24 AUC fold over DMSO @10 μM, CFTR-mediated transepithelial chloride transport in CF-HBE cells; format: cell-based; conditions: test agent AUC divided by DMSO vehicle AUC, primary CF-HBE cells, ΔF508 homozygous donor, 48 hours incubation
T1 construct: Primary human bronchial epithelial cells from a ΔF508 homozygous CF donor; host or cells: primary human bronchial epithelial cells (CF-HBE), ΔF508 homozygous donor
Outline: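 Primary ΔF508-homozygous CF bronchial epithelial cells on inserts were incubated 48 h at 36.5 °C with compound in IL-13-containing medium. VT and TEER were then recorded in current-clamp mode (pH 7.4 HEPES bath) with benzamil 10 μM, forskolin 10 μM, then CFTR inhibitor-172 20 μM. The IEQ AUC between forskolin and inhibitor was divided by vehicle AUC.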

[2] = molecular target: T2, NBD1 (Homo sapiens, UniProt P13569); experiment: Aggregation analysis using differential static light scattering (DSLS), thermal stability of NBD1 (ΔTagg); format: binding; conditions: ΔTagg versus DMSO control, NBD1 0.2 mg/ml
T2 construct: Purified recombinant NBD1 was produced using previously described methods; made in house
Outline: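 Purified recombinant NBD1 at 0.2 mg/ml in Tris buffer pH7.6 with 2 mM ATP, 5 mM MgCl2, 2 mM DTT and 1% glycerol was mixed with DMSO-dissolved compounds under mineral oil. Plates were heated at 1° C. per minute to 70° C., light scattering imaged every 0.5° C.; Tagg from curve inflection, minus DMSO-control mean.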

T2 sequence (P13569 423-646 limits assumed): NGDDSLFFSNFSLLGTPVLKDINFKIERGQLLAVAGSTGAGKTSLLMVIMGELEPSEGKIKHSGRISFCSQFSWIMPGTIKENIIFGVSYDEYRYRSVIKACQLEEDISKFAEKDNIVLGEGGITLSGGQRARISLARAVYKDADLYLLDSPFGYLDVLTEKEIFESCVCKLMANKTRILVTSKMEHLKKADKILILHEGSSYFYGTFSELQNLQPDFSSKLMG
T1 sequence (P13569 with tags, fused parts or gaps DEL508-508): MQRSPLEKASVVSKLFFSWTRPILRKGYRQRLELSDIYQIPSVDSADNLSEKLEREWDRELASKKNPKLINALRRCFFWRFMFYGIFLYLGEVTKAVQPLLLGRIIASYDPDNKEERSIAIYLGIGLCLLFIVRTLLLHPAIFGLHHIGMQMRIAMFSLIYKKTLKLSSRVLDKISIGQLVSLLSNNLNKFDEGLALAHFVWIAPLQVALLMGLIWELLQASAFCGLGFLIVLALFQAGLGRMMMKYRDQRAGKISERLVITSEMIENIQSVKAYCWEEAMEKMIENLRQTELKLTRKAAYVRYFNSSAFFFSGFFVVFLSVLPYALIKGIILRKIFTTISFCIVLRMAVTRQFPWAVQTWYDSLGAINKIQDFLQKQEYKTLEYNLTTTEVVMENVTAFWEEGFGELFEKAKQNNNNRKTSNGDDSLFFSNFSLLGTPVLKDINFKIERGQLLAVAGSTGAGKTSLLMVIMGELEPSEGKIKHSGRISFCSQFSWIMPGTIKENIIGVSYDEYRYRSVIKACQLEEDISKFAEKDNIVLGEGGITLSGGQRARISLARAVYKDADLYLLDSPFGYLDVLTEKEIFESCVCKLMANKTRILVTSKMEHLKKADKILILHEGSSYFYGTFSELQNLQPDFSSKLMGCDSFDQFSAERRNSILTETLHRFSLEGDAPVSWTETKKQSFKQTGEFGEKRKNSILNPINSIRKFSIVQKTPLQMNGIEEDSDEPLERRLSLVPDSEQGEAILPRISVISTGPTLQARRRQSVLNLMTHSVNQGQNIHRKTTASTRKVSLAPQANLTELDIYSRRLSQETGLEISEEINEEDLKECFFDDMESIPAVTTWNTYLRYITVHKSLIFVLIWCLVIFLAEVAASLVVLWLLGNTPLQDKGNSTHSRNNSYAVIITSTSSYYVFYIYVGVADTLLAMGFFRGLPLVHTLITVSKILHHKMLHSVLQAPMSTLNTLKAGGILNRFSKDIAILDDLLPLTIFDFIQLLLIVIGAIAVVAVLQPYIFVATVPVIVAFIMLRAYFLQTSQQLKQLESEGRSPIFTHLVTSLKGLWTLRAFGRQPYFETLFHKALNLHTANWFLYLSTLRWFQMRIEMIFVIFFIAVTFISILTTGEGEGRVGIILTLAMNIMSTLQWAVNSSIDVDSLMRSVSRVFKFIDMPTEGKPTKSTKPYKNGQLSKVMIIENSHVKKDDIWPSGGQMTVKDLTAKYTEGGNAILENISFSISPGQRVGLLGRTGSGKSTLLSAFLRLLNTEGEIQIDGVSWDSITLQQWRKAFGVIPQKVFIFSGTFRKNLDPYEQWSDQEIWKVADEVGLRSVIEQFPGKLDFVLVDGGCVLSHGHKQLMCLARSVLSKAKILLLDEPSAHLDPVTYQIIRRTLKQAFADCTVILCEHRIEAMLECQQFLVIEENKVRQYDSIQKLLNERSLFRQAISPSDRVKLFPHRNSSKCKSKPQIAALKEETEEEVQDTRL

Compound	TECC (AUC, 10 μM) [1]	DSLS 3D (100 μM ΔT) [2]
C[C@H](Cc1cccc([C@@]2(C)CCCC(C)(C)CS(=O)(=O)CCc3c(ccc4[nH]ccc34)Oc3ccc(F)c(c3)-c3nc2nn3C)c1)C(=O)O [Compound 190, (2R)-3-[3-[(6R)-28-fluoro-3,6,10,10-tetramethyl-12,12-dioxo-24-oxa-12λ6-thia-3,4,19,30-tetrazapentacyclo[23.3.1.12,5.015,23.016,20]triaconta-1(29),2(30),4,15,17,20,22,25,27-nonaen-6-yl]phenyl]-2-methyl-propanoic Acid]	B (a value between 12-20 is marked “B”)	C (a value greater than 10 °C and less than or equal to 25 °C is marked “C”)
C[C@@H](Cc1cccc([C@@]2(C)CCCC(C)(C)CS(=O)(=O)CCc3c(c(F)cc4[nH]ccc34)Oc3ccc(F)c(c3)-c3csc2n3)c1)C(=O)O [Compound 191, (2S)-3-[3-[(6R)-22,28-Difluoro-6,10,10-trimethyl-12,12-dioxo-24-oxa-4,12λ6-dithia-19,30-diazapentacyclo[23.3.1.12,5.015,23.016,20]triaconta-1(29),2,5(30),15,17,20,22,25,27-nonaen-6-yl]phenyl]-2-methyl-propanoic Acid]	B (a value between 12-20 is marked “B”)	C (a value greater than 10 °C and less than or equal to 25 °C is marked “C”)
C[C@@H](Cc1cccc([C@@]2(C)CCCC(C)(C)CS(=O)(=O)CCc3c(c(F)cc4[nH]ccc34)Oc3ccc(F)c(c3)-c3coc2n3)c1)C(=O)O [Compound 192, (2S)-3-[3-[(6R)-22,28-difluoro-6,10,10-trimethyl-12,12-dioxo-4,24-dioxa-12λ6-thia-19,30-diazapentacyclo[23.3.1.12,5.015,23.016,20]triaconta-1(29),2,5(30),15,17,20,22,25,27-nonaen-6-yl]phenyl]-2-methyl-propanoic Acid]	C (a value between 20 and 80 is marked “C”)	C (a value greater than 10 °C and less than or equal to 25 °C is marked “C”)
COC(=O)[C@H](C)Cc1csc(C2(C)CCCC(C)(C)CS(=O)(=O)CCc3c(c(F)cc4[nH]ccc34)Oc3ccc(F)c(c3)-c3nc2nn3C)c1 (stereo partly drawn) [Compound 193, Methyl (2R)-3-[5-(22,28-difluoro-3,6,10,10-tetramethyl-12,12-dioxo-24-oxa-12λ6-thia-3,4,19,30-tetrazapentacyclo[23.3.1.12,5.015,23.016,20]triaconta-1(29),2(30),4,15,17,20,22,25,27-nonaen-6-yl)-3-thienyl]-2-methyl-propanoate]	C (a value between 20 and 80 is marked “C”)	B (a value above 5 °C and less than or equal to 10 °C is marked “B”)
C[C@H](Cc1cccc([C@@]2(C)CCCC(C)(C)CS(=O)(=O)CCc3c(c(F)cc4[nH]ccc34)Oc3ccc(F)c(c3)C3=NN=C2S3)c1)C(=O)O [Compound 194, (2R)-3-[3-[(6R)-22,28-difluoro-6,10,10-trimethyl-12,12-dioxo-24-oxa-12λ6,30-dithia-3,4,19-triazapentacyclo[23.3.1.12,5.015,23.016,20]triaconta-1(29),2,4,15,17,20,22,25,27-nonaen-6-yl]phenyl]-2-methyl-propanoic Acid]	B (a value between 12-20 is marked “B”)	A (an ΔTagg value less than or equal to 5 °C is marked “A”)
C[C@H](Cc1cccc([C@@]2(C)CCCC(C)(C)CS(=O)(=O)CCc3c(c(F)cc4[nH]ccc34)Oc3ccnc(c3)-c3nc2nn3C)c1)C(=O)O [Compound 197, (2R)-3-[3-[(6R)-22-Fluoro-3,6,10,10-tetramethyl-12,12-dioxo-24-oxa-12λ6-thia-3,4,19,28,30-pentazapentacyclo[23.3.1.12,5.015,23.016,20]triaconta-1(29),2(30),4,15,17,20,22,25,27-nonaen-6-yl]phenyl]-2-methyl-propanoic Acid]	C (a value between 20 and 80 is marked “C”)	C (a value greater than 10 °C and less than or equal to 25 °C is marked “C”)
C[C@H](Cc1ccc(C2(C)CCCC(C)(C)CS(=O)(=O)CCc3c(c(F)cc4[nH]ccc34)Oc3ccc(F)c(c3)-c3nc2nn3C)s1)C(=O)O (stereo partly drawn) [Compound 198, (2R)-3-[5-(22,28-difluoro-3,6,10,10-tetramethyl-12,12-dioxo-24-oxa-12λ6-thia-3,4,19,30-tetrazapentacyclo[23.3.1.12,5.015,23.016,20]triaconta-1(29),2(30),4,15,17,20,22,25,27-nonaen-6-yl)-2-thienyl]-2-methyl-propanoic Acid]	C (a value between 20 and 80 is marked “C”)	C (a value greater than 10 °C and less than or equal to 25 °C is marked “C”)
Cn1nc2nc1-c1cc(ccc1F)Oc1c(F)cc3[nH]ccc3c1CCS(=O)(=O)CC(C)(C)CCCC2(C)c1cccc(CC2CCN(O)C2=O)c1 (stereo not shown) [Compound 199, 3-[[3-(22,28-Difluoro-3,6,10,10-tetramethyl-12,12-dioxo-24-oxa-12λ6-thia-3,4,19,30-tetrazapentacyclo[23.3.1.12,5.015,23.016,20]triaconta-1(29),2(30),4,15,17,20,22,25,27-nonaen-6-yl)phenyl]methyl]-1-hydroxy-pyrrolidin-2-one]	C (a value between 20 and 80 is marked “C”)	C (a value greater than 10 °C and less than or equal to 25 °C is marked “C”)
C[C@H](Cc1cccc([C@@]2(C)CCCC(C)(C)CS(=O)(=O)CCc3c(c(F)c(F)c4[nH]ccc34)Oc3ccc(F)c(c3)-c3nc2nn3C)c1)C(=O)O [Compound 200, (2R)-2-methyl-3-[3-[(6R)-21,22,28-trifluoro-3,6,10,10-tetramethyl-12,12-dioxo-24-oxa-12λ6-thia-3,4,19,30-tetrazapentacyclo[23.3.1.12,5.015,23.016,20]triaconta-1(29),2(30),4,15,17,20,22,25,27-nonaen-6-yl]phenyl]propanoic acid]	C (a value between 20 and 80 is marked “C”)	C (a value greater than 10 °C and less than or equal to 25 °C is marked “C”)
C[C@H](Cc1cccc([C@@]2(C)CCCC(C)(C)CS(=O)(=O)CCc3c(c(F)cc4[nH]ccc34)Oc3cncc(c3)-c3nc2nn3C)c1)C(=O)O [Compound 202, (2R)-3-[3-[(6R)-22-fluoro-3,6,10,10-tetramethyl-12,12-dioxo-24-oxa-12λ6-thia-3,4,19,27,30-pentazapentacyclo[23.3.1.12,5.015,23.016,20]triaconta-1(29),2(30),4,15,17,20,22,25,27-nonaen-6-yl]phenyl]-2-methyl-propanoic Acid]	C (a value between 20 and 80 is marked “C”)	C (a value greater than 10 °C and less than or equal to 25 °C is marked “C”)
C[C@H](Cc1cccc([C@@]2(C)CCCC(C)(C)CS(=O)(=O)CCc3c(c(F)c(F)c4[nH]ccc34)Oc3ccnc(c3)-c3nc2nn3C)c1)C(=O)O [Compound 221, (2R)-3-[3-[(6R)-21,22-difluoro-3,6,10,10-tetramethyl-12,12-dioxo-24-oxa-12λ6-thia-3,4,19,28,30-pentazapentacyclo[23.3.1.12,5.015,23.016,20]triaconta-1(29),2(30),4,15,17,20,22,25,27-nonaen-6-yl]phenyl]-2-methyl-propanoic Acid]	B (a value between 12-20 is marked “B”)	C (a value greater than 10 °C and less than or equal to 25 °C is marked “C”)
Cn1nc2nc1-c1cc(ccn1)Oc1c(F)cc3[nH]ccc3c1CCS(=O)(=O)CC(C)(C)CCC[C@]2(C)c1cccc(CC(=O)O)c1 [Compound 226, 2-[3-[(6R)-22-Fluoro-3,6,10,10-tetramethyl-12,12-dioxo-24-oxa-12λ6-thia-3,4,19,28,30-pentazapentacyclo[23.3.1.12,5.015,23.016,20]triaconta-1(29),2(30),4,15,17,20,22,25,27-nonaen-6-yl]phenyl]acetic Acid]	C (a value between 20 and 80 is marked “C”)	C (a value greater than 10 °C and less than or equal to 25 °C is marked “C”)
Cn1nc2nc1-c1cc(ccn1)Oc1c(F)cc3[nH]ccc3c1CCS(=O)(=O)CC(C)(C)CCC[C@]2(C)c1cccc(CCO)c1 [Compound 227, 2-[3-[(6R)-22-Fluoro-3,6,10,10-tetramethyl-12,12-dioxo-24-oxa-12λ6-thia-3,4,19,28,30-pentazapentacyclo[23.3.1.12,5.015,23.016,20]triaconta-1(29),2(30),4,15,17,20,22,25,27-nonaen-6-yl]phenyl]ethanol]	B (a value between 12-20 is marked “B”)	C (a value greater than 10 °C and less than or equal to 25 °C is marked “C”)
C[C@@H](Cc1cccc([C@@]2(C)CCCC(C)(C)CS(=O)(=O)CCc3c(c(F)cc4[nH]ccc34)[S+]([O-])c3ccnc(c3)-c3nc2co3)c1)C(=O)O (stereo partly drawn) [Compound 229, (2S)-3-[3-[(6R)-22-Fluoro-6,10,10-trimethyl-12,12,24-trioxo-3-oxa-12λ6,24λ4-dithia-19,28,30-triazapentacyclo[23.3.1.12,5.015,23.016,20]triaconta-1(29),2(30),4,15,17,20,22,25,27-nonaen-6-yl]phenyl]-2-methyl-propanoic Acid]	C (a value between 20 and 80 is marked “C”)	C (a value greater than 10 °C and less than or equal to 25 °C is marked “C”)
